Source: article PMC10840383, “Clinical features, functional consequences, and rescue pharmacology of missense GRID1 and GRID2 human variants” (Human Molecular Genetics, 2023)
Where a chain is given by its changes, count along the chain named. Values joined by “and” are separate entries in the source; they are usually repeats but may differ in a detail not shown here. Equal entries are not always repeated. Where two headings read alike, the source gives them in different places. Values belong to the molecule of their own block, whether it stands above or below them.

Columns and labels:
[1] = target: T1, GluD2-T649A (Rattus norvegicus, UniProt Q63226, T649A); assay: TEVC of constitutive current, Xenopus oocytes expressing GluD2-T649A; format: cell-based; details: for IC50: read-out: Pentamidine IC50
T1 construct: expressed in transfected cells; host or cells: Xenopus laevis oocytes injected with cRNA
T1 sequence (Q63226 24-1007 T649A): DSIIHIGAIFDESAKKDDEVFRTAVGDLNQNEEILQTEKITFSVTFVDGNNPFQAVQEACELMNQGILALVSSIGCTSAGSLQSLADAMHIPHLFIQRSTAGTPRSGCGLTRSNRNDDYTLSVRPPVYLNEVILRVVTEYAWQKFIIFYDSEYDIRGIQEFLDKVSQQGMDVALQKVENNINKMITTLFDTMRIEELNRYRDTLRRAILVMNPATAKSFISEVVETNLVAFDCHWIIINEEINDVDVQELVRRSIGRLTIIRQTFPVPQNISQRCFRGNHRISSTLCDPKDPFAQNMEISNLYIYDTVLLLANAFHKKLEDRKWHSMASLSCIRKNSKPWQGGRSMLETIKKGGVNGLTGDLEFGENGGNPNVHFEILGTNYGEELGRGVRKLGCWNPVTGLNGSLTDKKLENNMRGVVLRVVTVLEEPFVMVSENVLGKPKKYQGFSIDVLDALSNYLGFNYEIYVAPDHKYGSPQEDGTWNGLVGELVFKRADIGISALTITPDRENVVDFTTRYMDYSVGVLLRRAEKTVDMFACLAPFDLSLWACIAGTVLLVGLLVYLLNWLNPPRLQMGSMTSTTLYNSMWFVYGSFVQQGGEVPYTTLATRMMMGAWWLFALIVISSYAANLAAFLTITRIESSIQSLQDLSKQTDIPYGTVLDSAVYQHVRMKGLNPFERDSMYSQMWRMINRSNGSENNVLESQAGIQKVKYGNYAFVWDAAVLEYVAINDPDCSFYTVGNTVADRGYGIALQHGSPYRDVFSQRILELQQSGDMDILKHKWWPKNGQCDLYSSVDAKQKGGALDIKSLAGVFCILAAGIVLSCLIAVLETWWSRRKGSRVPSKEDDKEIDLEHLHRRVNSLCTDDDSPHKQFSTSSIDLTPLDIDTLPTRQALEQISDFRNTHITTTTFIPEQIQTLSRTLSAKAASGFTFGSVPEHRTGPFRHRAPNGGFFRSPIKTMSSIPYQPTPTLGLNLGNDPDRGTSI

[2] = target: T2, GluD2-A654T (Rattus norvegicus, UniProt Q63226, A654T); assay: TEVC of constitutive current, Xenopus oocytes expressing GluD2-A654T (lurcher); format: cell-based
T2 construct: expressed in transfected cells; host or cells: Xenopus laevis oocytes injected with cRNA
T2 sequence (Q63226 24-1007 A654T): T1 sequence (Q63226 24-1007 T649A) with A626T, A631T

[3] = normalized to NMDG+ − Na+ difference current
[4] = potentiation of constitutive current, read-out: Ca2+ EC50 [95% CI]
[5] = 10 mM D-serine, positive = increase, negative = decrease of activity
[6] = percent of constitutive leak current (NMDG+/Na+ difference current)
[7] = 100 μM pentamidine, positive = increase, negative = decrease of activity

- Ca2+ EC50 of the relation Ca2+ concentration vs D-serine IC50 ([1]; Hill fit, Fig. S7A): 630 µM
- Hill slope of the relation Ca2+ concentration vs D-serine IC50 ([1]; Hill fit, Fig. S7A): 1.4
- Ca2+ % Max (NMDG+ − Na+) Mean ± SEM [1, 3]: 345 ± 55 (10) %
- EC50 [1, 4]: 290 µM
- Ca2+ EC50 A654T/EC50 variant ([1]; ratio): 0.52
- EC50 ([1]; read-out: Ca2+ potentiation EC50): 100 to 400 µM
- Ca2+ EC50 of the relation Ca2+ concentration vs D-serine IC50 ([2]; Hill fit, Fig. S7A): 590 µM
- Hill slope of the relation Ca2+ concentration vs D-serine IC50 ([2]; Hill fit, Fig. S7A): 1.1
- Ca2+ % Max (NMDG+ − Na+) Mean ± SEM [2, 3]: 299 ± 5.8 (32) %
- EC50 [2, 4]: 150 µM
- Ca2+ EC50 A654T/EC50 variant ([2]; ratio): 1.0
SMILES: [Ca+2] [Ca^2+]

- D-serine Hill slope ([1]; 1 mM Ca2+, Fig. S7B): 2.0
- D-serine Maximum ([1]; 1 mM Ca2+, Fig. S7B): 54%
- D-Serine effect (Baseline −10 mM D-Serine) [1, 5]: −35 ± 5.6 (14) nA
- D-serine % Max (NMDG+ − Na+) Mean ± SEM [1, 6]: 49 ± 2.5 (7) %
- D-serine Hill slope ([2]; 1 mM Ca2+, Fig. S7B): 2.5
- D-serine Maximum ([2]; 1 mM Ca2+, Fig. S7B): 73%
- Reduction of maximum possible activity (Na+ −NMDG+ difference current) by D-serine ([2]; 10 mM D-serine): ~ 50%
- D-Serine effect (Baseline −10 mM D-Serine) [2, 5]: −1000 ± 130 (14) nA
- D-serine % Max (NMDG+ − Na+) Mean ± SEM [2, 6]: 51 ± 1.3 (32) %
SMILES: N[C@H](CO)C(=O)O [D-serine]

- IC50 ([2]; inhibition of constitutive current, read-out: Memantine IC50): 89 µM
SMILES: CC12CC3CC(C)(C1)CC(N)(C3)C2 [Memantine, memantine]

SMILES: N=C(N)c1ccc(OCCCCCOc2ccc(C(=N)N)cc2)cc1 [Pentamidine, pentamidine]
- Pentamidine effect (Baseline −100 μM Pentamidine) [1, 7]: −18 ± 4.8 (14) nA
- Fold increase in pentamidine potency on GluD2-T649A compared to GluD2-A654T ([1]; IC50 comparison): ~ 200 fold and > 200 fold
- IC50 ([1]; inhibition of constitutive channels): 0.037 µM
- IC50 ([1]; inhibition of constitutive current, 1 mM Ca2+): 0.036 µM
- Pentamidine effect (Baseline −100 μM Pentamidine) [2, 7]: −930 ± 130 (14) nA
- IC50 ([2]; read-out: Pentamidine IC50): 9.6 µM
